Test results: patent US20190328665A1, “LIPOSOME COMPOSITIONS ENCAPSULATING MODIFIED CYCLODEXTRIN COMPLEXES AND USES THEREOF” (priority 2014, published 2019)
≈ marks a conversion by molar mass, not a printed value.

Key:
HCT116 xenografts = assay: HCT116 subcutaneous xenograft tumor growth; type: in vivo, nude mice
Protocol: (§1) Tumor volume was recorded every 48 hours.

physchem = type: physicochemical; settings: for solubility: water
Protocol: (§2) Equimolar quantities of the drug (0.1 mmol; 30-50 mg) and appropriate cyclodextrin ([…]; 110-185 mg) were dissolved separately in methanol (nearly saturated; ˜1-2 mL) and deionized water (˜10-20 mg/mL), respectively. The methanolic solution of the drug was then added dropwise into the cyclodextrin solution with agitation ensuring a uniform suspension. This suspension was then shaken at 55° C. for 36-48 hours using an Eppendorf Thermomixer R. The solution was filtered to remove particulate matter and flash frozen in a dry ice/acetone bath followed by lyophilization. The lyophilized complex was stored at −20° C. until further use.
Organic dyes (coumarins) were used to determine whether the modified cyclodextrins could encapsulate and transport hydrophobic compounds across the liposome bilayer. Coumarins are very hydrophobic and a dramatic improvement in aqueous solubility was observed after they were encapsulated into 6′-mono-ethylenediamino-6′-deoxy-cyclodextrin (compound III). It was determined that the most efficient and convenient way to encapsulate the coumarins was by freeze drying (Cao et al. (2005) Drug Dev. Industr. Pharm. 31:747-756; Badr-Eldin et al. (2008) Eur. J. Pharm. Biopharm. 70:819-827). […] Once dissolved, the cyclodextrin-coumarin complexes were incubated with pre-formed liposomes exactly as described above, using a pH gradient to drive the compounds across the bilayer. Following overnight dialysis to remove unincorporated complexes, the liposomes were subsequently disrupted with methanol and the coumarin fluorescence measured. As shown by fluorescence spectroscopy, all cyclodextrin-dye complexes were incorporated into liposomes with high efficiency (>95%; FIG. 5). […] The incorporation of coumarin dyes into liposomes was easily discerned by the naked eye, as the coumarin-cyclodextrin liposomes were bright yellow, whereas control liposomes (made without cyclodextrins, for example) were colorless (FIGS. 5A-5C).

in vivo = settings: female, athymic nu/nu, mouse, iv
[1] = Phase II / Phase 2 trials; cited from earlier work
[2] = system: HCT116 cells with genetically inactivated TP53 alleles; assay: Xenograft of HCT116 cells with genetically inactivated TP53 alleles; design: species or system nude mice; settings: mouse, in vivo
Protocol: as §1

[3] = mouse, in vivo, iv, 100 mg/kg
[4] = Passive loading of BI-2536 into liposomes; type: physicochemical
Protocol: Method 1: Encapsulation of BI-2536 in the lipid layer. Hydrogenated egg phosphatidylcholine (Avanti Polar Lipids), cholesterol, and DSPE-PEG2000 (Avanti Polar Lipids) (molar ratios 50:45:5) were dissolved in chloroform (20 mL). Ten milligrams of BI-2536 (in 1 mL chloroform) was added and the solvent was evaporated to generate a thin film. One milliliter of PBS (pH 7.4) was added to hydrate the lipid layer, and the mixture was shaken at 50° C. for 2 hours as described above. The vesicle suspension was sonicated for 30 min and then extruded successively through 0.4-, 0.2-, and 0.1-μm polycarbonate membranes (Whatman; Nuclepore Track-Etched Membrane) at 50° C. to obtain the final liposomes with low polydispersity at the desired size. The liposomes were then dialyzed in PBS overnight to remove unentrapped drug. The average size and polydispersity index were then measured by dynamic light-scattering experiments on a Malvem Z90. Drug content was calculated by rupturing the liposomes with an equal volume of methanol and measuring the UV-vis absorbance on a NanoDrop 1000.
Method 2: Hydration of the lipid layer with an aqueous formulation of BI-2536. Hydrogenated egg phosphatidylcholine (Avanti Polar Lipids), cholesterol, and DSPE-PEG2000 (Avanti Polar Lipids) (molar ratios 50:45:5) were dissolved in chloroform (20 mL), and the solvent was evaporated in vacuo to generate a thin film. One milliliter of aqueous BI-2536 (4 mg; pH 5.5) was added to hydrate the lipid layer, and the mixture was shaken at 50° C. for 2 hours as described above. The vesicle suspension was sonicated for 30 minutes and then extruded successively through 0.4-, 0.2-, and 0.1-μm polycarbonate membranes (Whatman; Nuclepore Track-Etched Membrane) at 50° C. to obtain the final liposomes with low polydispersity at the desired size. The liposomes were then dialyzed against PBS overnight to remove unentrapped drug. The average size and polydispersity index were then measured by dynamic light-scattering experiments on a Malvem Z90. Drug content was calculated by rupturing the liposomes with an equal volume of methanol and measuring the UV-vis absorbance on a NanoDrop 1000.
The cyclodextrin-based loading method was also compared with the most common approaches to entrapping hydrophobic and insoluble agents in liposomes. First, direct entrapment of BI-2536 in the lipid bilayer was attempted. BI-2536 was co-evaporated with hydrogenated egg phosphatidylcholine-cholesterol-1,2-distearoyl-sn-glycero-3-phosphoethanolamine-N-[methoxy(polyethylene glycol)-2000 (DSPE-PEG 2000) to prepare a thin film, which was subsequently hydrated with 1 mL PBS and extruded through a 100-nm polycarbonate membrane at 700 psi to prepare small, unilamellar vesicles (average particle size (Zavg) 126 nm; PDI 0.09). Upon overnight dialysis against PBS to remove unentrapped drug, the drug-containing liposomes rapidly swelled (Zavg 539 nm; PDI 0.49) and released nearly 90% of the entrapped drug. Second, the lipid film was hydrated with an aqueous formulation of BI-2536 (passive loading). Hydration of the lipid film, followed by extrusion and dialyses, led to stable liposomes. However, the encapsulation efficiency was <10%, 20-fold less than achievable with the modified cyclodextrins described herein.

[5] = Remote loading of cyclodextrin-encapsulated dyes/drugs into liposomes; type: physicochemical
Protocol: as §2
The lyophilized powder complex described above was pulverized and incubated with appropriate liposomal solutions (30-40 mg drug equivalent in 6 mL liposomal solution, to achieve loading ratios of 5-8 mg/mL concentrations) for 1 hour at 65° C. They were centrifuged at 1,000×g for 3 minutes to remove particulate matter and then dialyzed against 300 mM sucrose or commercial PBS solution (pH 7.4) overnight to remove material that had not been loaded into the liposomes. The size distributions of the liposomal formulations were characterized using the Malvem ZS90 instrument described above.
The liposomal solution was dialyzed against PBS overnight.
Organic dyes (coumarins) were used to determine whether the modified cyclodextrins could encapsulate and transport hydrophobic compounds across the liposome bilayer. […] It was determined that the most efficient and convenient way to encapsulate the coumarins was by freeze drying (Cao et al. (2005) Drug Dev. Industr. Pharm. 31:747-756; Badr-Eldin et al. (2008) Eur. J. Pharm. Biopharm. 70:819-827). […] Following overnight dialysis to remove unincorporated complexes, the liposomes were subsequently disrupted with methanol and the coumarin fluorescence measured. As shown by fluorescence spectroscopy, all cyclodextrin-dye complexes were incorporated into liposomes with high efficiency (>95%; FIG. 5). […]

RKO xenografts = assay: RKO xenograft tumor growth; type: in vivo, nude mice; settings: free drug 150 mg/kg
Protocol: as §1
With the free drug, severe acute toxicity was evident. In previous studies, the free drug was administered by oral gavage, because its solubility is not sufficient for intravenous dosing.

[6] = mouse, in vivo, iv
Protocol: Coumarin 334 was used as a drug surrogate to assess biodistribution and pharmacokinetics of cyclodextrin-encapsulated liposomes. […] Female athymic nu/nu mice bearing HCT116 subcutaneous xenografts were used in the study following a modified protocol described in Macdiarmid et al. (2007) Cancer Cell 11:431-445. When the tumor volumes reached 400-600 mm^3, 12 mice were treated intravenouslys (i.v.) with 200 μL cyclodextrin-encapsulated, liposomal (CYCL-)coumarin 334 (0.5 mg/mL). Posttreatment, four mice were euthanized at time points 2, 24, and 48 hours and tumor, spleen, liver, kidneys, heart, and lungs were excised and weighed. Blood was also collected, and plasma was separated and stored at 4° C. Except for plasma, each frozen tissue was homogenized and sonicated in 0.9% saline [3×volume (μL) of tissue mass (mg)]. […] The samples were centrifuged (6,000×g for 10 minutes) and the fluorescence in the supematants was measured by a CytoFluor II fluorescence multiwall plate reader (Applied Biosystems) using excitation 485 nm/emission 530 nm. […]
To establish biodistribution and pharmacokinetics of the CYCL liposomes, liposomes loaded with coumarin 334 encapsulated in cyclodextrin VI were used to treat HCT116-bearing mice by intravenous (i.v.) injection. Samples from major tissues harvested at 2, 24, and 48 hours post-treatment were analyzed for their fluorescence.

[7] = direct entrapment in lipid bilayer, after extrusion
[8] = direct entrapment in lipid bilayer, after overnight dialysis against PBS

For `CC[C@@H]1C(=O)N(C)c2cnc(Nc3ccc(C(=O)NC4CCN(C)CC4)cc3OC)nc2N1C1CCCC1` [BI-2536], the tumor regressions (HCT116 xenografts; mouse, in vivo) was “not with free drug”, the “slowing of tumor growth” value (HCT116 xenografts; two i.v. doses of 100 mg/kg) was roughly 30% and the “effect of aminated cyclodextrins V and VI on aqueous solubility” value (physchem) was “dramatically improved”. The solubility (physchem) was 500 µg/mL (≈ 958 µM), the MTD (in vivo) was 100 mg/kg and the “toxicity in clinical trials” value [1] was “unacceptable toxicity (grade 4 neutropenia) at sub-therapeutic doses”. The tumor regressions [2] was “not with free drug”, the “acute toxicity / survival” value [3] was “somewhat lethargic immediately after drug administration, but survived” and the PDI [4, 7] was 0.09. For the same compound, the “average particle size (Zavg)” value [4, 7] was 126 nm, the PDI [4, 8] was 0.49 and the “average particle size (Zavg)” value [4, 8] was 539 nm. The entrapped drug released ([4]; direct entrapment in lipid bilayer, overnight dialysis against PBS) was roughly 90%, the “encapsulation efficiency relative to modified cyclodextrins (fold less)” value ([4]; passive loading) was 20 fold and the encapsulation efficiency ([4]; passive loading: lipid film hydrated with aqueous BI-2536) was less than 10%.
For “6′,6′,6′,6′,6′,6′,6′-heptakis-succinyl-β-cyclodextrin [IX]”, the “liposome loading of PD-0325901 among cyclodextrins VI, VII, VIII, IX” value ([5]; acidic or basic liposomes) was “best liposome loading”.
For `O=C(NOC[C@H](O)CO)c1ccc(F)c(F)c1Nc1ccc(I)cc1F` [PD-0325901], the “increase in solubility after encapsulation into cyclodextrins” value (physchem) was roughly 40 fold, the solubility (physchem) was 100 µg/mL (≈ 207 µM) and the “slowing of tumor growth” value (RKO xenografts) was roughly 5%. For the same compound, the “toxicity in clinical trials” value [1] was “retinal vein occlusion (RVO)”.
In the case of `CC(=O)c1cc2cc3c4c(c2oc1=O)CCCN4CCC3` [coumarin 334], the “persistence in blood and tumor” value [6] is reported as “persisted in the blood and tumor” and the tissue clearance [6] is reported as “cleared from most of the tissues examined”.
With `CCOC(=O)c1cc2cc3c4c(c2oc1=O)CCCN4CCC3` [coumarin 314] the “loading efficiency when encapsulated in unionizable native β-cyclodextrin” value ([5]; citrate liposomes) was “only marginally improved the loading efficiency” and the “loading into liposomes in the absence of cyclodextrins” value ([5]; citrate liposomes, identical conditions) was “poorly incorporated into liposomes”.
